{"source": "patent US20090215763A1", "about": "“SUBSTITUTED BENZOXAZINONES” (P&H Therapeutics, Inc., priority 2008, published 2009)", "tested_on": "spontaneously hypertensive rat (SHR)", "assay": "In vivo model study: telemetry cardiovascular assessment in SHR rats", "conditions": "male SHR rats, intraperitoneal administration, radiotelemetry, preliminary evaluation", "description": "The objective of this study is to define the magnitude, time course and dose/concentration response relationship of compound 13 antihypertensive effects when administered intraperitoneally (IP) to male SHR rats maintained on standard and low salt diets. In Vivo Phase I: Three male SHR rats, 7-10 weeks of age weighing 150-300 g, will be instrumented with radiotelemetry transmitters. Following an approximate 2-week recovery period, animals will receive a single intraperitoneal dose of test article. Cardiovascular data will be collected for approximately 24 hours following dosing. Cardiovascular data is collected from non-restrained animals implanted with radiotelemetry devices. 1. SHR rats, 7-10 weeks of age weighing 150-300 g, are implanted with radiotelemetry devices. Transmitters are placed subcutaneously in the ventral abdominal region and blood pressure is monitored from the femoral artery. Animals will be allowed to recover at least 10 days prior to data collection. 5. At least 1 hour of baseline is collected from undisturbed animals prior to each dosing. Following test article administration, approximately 24 hours of data is collected from undisturbed animals to assess hemodynamic effects.", "data": [{"smiles": "CCc1nc(N)nc(N)c1-c1ccc2c(c1)N(CCNC(=O)OC)C(=O)[C@](C)(c1cc(F)cc(F)c1)O2", "note": "[Compound 13]", "values": [{"measurement": "blood pressure reduction in SHR (antihypertensive effect)", "value": "blood pressure reduction"}]}]}
